Measurements published in patent publication US20070134259A1, “Methods and compositions for pharmacologially controlled targeted immunotherapy” (priority 2005, published 2007).

Key:
purified integrin αvβ3 = target: T1, purified integrin αvβ3 (Homo sapiens, UniProt P05106+P06756); assay: ELISA on purified receptor: RGD-STZ ligand mediated ternary complex formation with anti-STZ rabbit serum; assay type: binding
T1 construct: purchased Chemicon
Experimental: Indirect recognition of integrin by streptavidin mediated by RGD-biotin was used as positive control.
96 well polystyrene plates (Nunc) were coated with 1 μg/ml of purified integrin αvβ3 (Chemicon) in buffer: 50 mM Hepes , 0.1 M NaCl, 2 mM CaCl2, 1 mM MnCl2, 1 mM MgCl2 pH 7.5. Blocking was performed with 3% BSA in the same buffer for at least 1 hr.
Ternary complex formation was obtained in concurrent or sequential mode. For sequential mode experiment the ELISA plate was incubated with RGD-STZ (root of ten dilutions starting from 10 μg/ml); 2 hr, room temperature, followed by anti-STZ rabbit serum diluted 3000 times, 1 hr RT. In the concurrent mode the incubation mixture contained both RGD-STZ and anti-STZ rabbit serum. Serum concentration was kept constant (1/3000) while RGD-STZ concentration was varied as before; incubation time 2 hr. The formed complex was detected with goat anti-Rabbit HRP conjugate. Dilutions were made in same buffer supplemented with 0.05% Tween and 0.1% BSA. BSA was not included in the washing steps.
Solid-phase assays were conducted in two different formats: concurrent and sequential incubation. In the concurrent format, RGD-STZ was premixed with rabbit serum 1E6 and incubated on the plate, which was pre-coated with integrin αvβ3. In the sequential format, RGD-STZ was incubated on the integrin coated plate, washed and rabbit serum 1E6 was applied. In both formats, the signal was developed by detection of rabbit antibodies with anti-rabbit HRP antibody conjugate. […] This range of IBAIT concentrations in which a stable ternary complex is produced constitutes a therapeutic window, where the IBAIT can be applied for targeting immunoglobulins to malignancies.
That is, the sequential addition of antibody results in the continued formation of stable ternary complexes until receptor saturation plateaus.

HTB-14 cells = assay: Ligand-mediated immunostaining of cells via RGD-STZ and anti-STZ serum; assay type: cell-based; details: sequential: RGD-STZ, formaldehyde fixation, anti-STZ serum
Experimental: Cells could be stained through the ligand mediated association of antibody to the integrin molecule on the cell.
Ligand-mediated staining of HTB-14 cells was performed by incubations in sequential order. Cell were first treated with RGD-STZ then fixed with formaldehyde and stained using anti-STZ serum.
Cells were cultivated as described above. For staining, 6 well tissue culture plate containing chambered cover glasses was placed on ice and medium (DMEM, 10% FBS) replaced with same medium containing mixture of RGD-STZ and anti-STZ serum premixed at proportion giving highest signal in ELISA assay (˜10 μg of RGD-STZ in ml of rabbit serum). Mixture of RGD-STZ and serum was diluted in medium 30, 300 and 3000 times.
After 30 min of incubation specimens were washed with ice cold medium 3 times and incubated with Goat anti-Rabbit Alexa488 at concentration 10 μg/ml in DMEM. After 3 rinses with ice cold DMEM cells were fixed with 10% paraformaldehyde in PBS at room temperature, washed with PBS and mounted as above.
In some experiments cells were primed with RGD-STZ (50 μg/ml in DMEM) on ice for 20 min. then fixed with paraformaldehyde and stained further like described in first protocol.

T1 sequence (P06756 31-889 limits assumed): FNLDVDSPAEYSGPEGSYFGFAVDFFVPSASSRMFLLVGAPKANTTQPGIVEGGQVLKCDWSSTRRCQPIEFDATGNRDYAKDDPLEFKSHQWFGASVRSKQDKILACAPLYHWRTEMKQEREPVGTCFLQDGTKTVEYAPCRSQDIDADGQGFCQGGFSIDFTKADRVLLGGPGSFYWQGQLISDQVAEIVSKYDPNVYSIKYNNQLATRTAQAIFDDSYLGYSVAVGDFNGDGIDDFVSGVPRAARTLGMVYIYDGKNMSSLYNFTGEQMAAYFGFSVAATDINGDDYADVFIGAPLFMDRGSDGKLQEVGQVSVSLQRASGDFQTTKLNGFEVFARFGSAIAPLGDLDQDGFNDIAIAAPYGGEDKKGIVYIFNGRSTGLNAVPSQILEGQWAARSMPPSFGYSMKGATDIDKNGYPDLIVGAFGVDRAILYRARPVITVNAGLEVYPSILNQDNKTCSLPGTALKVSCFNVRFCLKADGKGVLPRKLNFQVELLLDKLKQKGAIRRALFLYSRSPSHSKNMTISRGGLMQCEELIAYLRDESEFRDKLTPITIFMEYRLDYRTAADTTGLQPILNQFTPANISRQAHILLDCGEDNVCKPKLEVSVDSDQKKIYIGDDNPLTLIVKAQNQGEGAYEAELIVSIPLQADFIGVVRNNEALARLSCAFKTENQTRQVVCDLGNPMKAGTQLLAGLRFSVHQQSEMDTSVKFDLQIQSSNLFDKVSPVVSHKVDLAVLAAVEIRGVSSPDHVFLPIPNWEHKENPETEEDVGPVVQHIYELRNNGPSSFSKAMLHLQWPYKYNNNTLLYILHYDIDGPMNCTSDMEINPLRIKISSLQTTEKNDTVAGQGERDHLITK
T1 sequence (P06756 891-1048 partner limits assumed): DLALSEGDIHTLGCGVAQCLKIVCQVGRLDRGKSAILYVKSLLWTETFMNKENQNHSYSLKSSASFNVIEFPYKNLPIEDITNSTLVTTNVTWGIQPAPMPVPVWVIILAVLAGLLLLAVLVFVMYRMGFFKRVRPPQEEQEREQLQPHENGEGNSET
T1 sequence (P05106 27-788): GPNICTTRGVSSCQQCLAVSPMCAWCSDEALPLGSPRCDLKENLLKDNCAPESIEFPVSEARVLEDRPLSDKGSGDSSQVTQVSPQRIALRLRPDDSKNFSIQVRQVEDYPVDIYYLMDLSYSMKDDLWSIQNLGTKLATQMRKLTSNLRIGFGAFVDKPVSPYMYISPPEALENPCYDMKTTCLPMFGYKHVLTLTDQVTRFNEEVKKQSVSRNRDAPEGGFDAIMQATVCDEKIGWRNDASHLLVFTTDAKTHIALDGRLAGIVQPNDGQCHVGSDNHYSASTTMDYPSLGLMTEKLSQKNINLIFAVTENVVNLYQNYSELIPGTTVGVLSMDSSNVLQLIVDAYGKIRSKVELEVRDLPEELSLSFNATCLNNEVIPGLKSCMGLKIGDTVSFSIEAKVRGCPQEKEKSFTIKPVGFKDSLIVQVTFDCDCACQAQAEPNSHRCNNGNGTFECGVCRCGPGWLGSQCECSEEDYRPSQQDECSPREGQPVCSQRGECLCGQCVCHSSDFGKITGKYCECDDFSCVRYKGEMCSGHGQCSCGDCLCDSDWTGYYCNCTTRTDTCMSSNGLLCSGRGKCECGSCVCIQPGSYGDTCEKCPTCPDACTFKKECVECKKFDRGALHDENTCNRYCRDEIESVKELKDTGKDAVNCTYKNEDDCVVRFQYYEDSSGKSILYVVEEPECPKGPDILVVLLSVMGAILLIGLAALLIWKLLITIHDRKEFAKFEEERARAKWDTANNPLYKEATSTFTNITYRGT

cyclo(-R-G-D-f-K(STZ)) [RGD-STZ]
concentration dependence of ELISA signal (ternary complex formation), concurrent incubation (purified integrin αvβ3; concurrent format: RGD-STZ premixed with rabbit serum, incubated on integrin coated plate, FIG. 5A): bell-shaped concentration dependencies
indirect recognition of the integrin by anti-STZ antibodies mediated by the ligand (purified integrin αvβ3; plates coated with purified αvβ3 integrin, anti-STZ rabbit serum, goat anti-Rabbit HRP detection): excellent indirect recognition
proportion of RGD-STZ and anti-STZ serum giving highest signal in ELISA assay (purified integrin αvβ3; premixed RGD-STZ and anti-STZ serum): ~10 μg of RGD-STZ in ml of rabbit serum
concentration dependence of ELISA signal (ternary complex formation), sequential incubation (purified integrin αvβ3; sequential format: RGD-STZ incubated on integrin coated plate, washed, then rabbit serum, FIG. 5B): signal that steadily increased with increasing RGD-STZ (IBAIT) concentration
ligand-mediated staining pattern of cells (HTB-14 cells): distinct pattern of dots on the plasma membrane as well as general fluorescent illumination of cells
